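48-hour exposure; five concentrations; linearly interpolated endpoints. Here, GI50 denotes the concentration required for 50% inhibition of growth. Definition used: TGI = concentration required for complete inhibition of growth.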
Key:
Assay in all cases: NCI tumour cell line growth inhibition, 48 h
[1] = system: SF-295 CNS
[2] = system: TK-10 renal
[3] = system: 786-0 renal
[4] = system: MDA-MB-231 breast
[5] = system: HCC-2998 colon
[6] = system: EKVX NSCLC
[7] = system: RPMI-8226 leukemia
[8] = system: NCI-H23 lung
[9] = system: NCI-H226 lung
[10] = system: OVCAR-5 ovarian
[11] = system: K-562 leukemia

Row | Structure (SMILES) | TGI [1] | TGI [2] | TGI [3] | TGI [4] | TGI [5] | TGI [6] | TGI [7] | TGI [8] | TGI [9] | TGI [10] | TGI [11] | GI50 [1] | GI50 [2] | GI50 [4] | GI50 [5] | GI50 [10] | GI50 [11] | GI50 [6] | GI50 [8]
1 | COc1ccc(C(=C2C(=O)OC(=O)C2=C(C)C)c2ccc(OC)cc2)cc1 | > 100 µM | > 100 µM | > 100 µM | > 100 µM | > 100 µM | > 100 µM | > 100 µM | > 100 µM | > 100 µM | > 100 µM | – | – | – | – | – | – | – | – | –
2 | O=C(O)C(CS)N=Cc1nc(-c2ccccc2)oc1O (configuration not stated) | > 100 µM | > 100 µM | > 100 µM | – | > 100 µM | > 100 µM | > 100 µM | > 100 µM | > 100 µM | > 100 µM | > 100 µM | – | – | – | – | – | – | – | –
3 | CN(C)CN1C(=O)/C(=N\n2c(-c3ccncc3)n[nH]c2=S)c2ccccc21 | > 100 µM | > 100 µM | 41.6 µM | > 100 µM | – | > 100 µM | – | > 100 µM | > 100 µM | > 100 µM | > 100 µM | – | – | – | – | – | – | – | –
4 | O=c1n(CCCN2CCOCC2)nc2n1-c1ccc3ccccc3c1SC2 | 42.1 µM | > 100 µM | 38.3 µM | – | – | > 100 µM | 80.8 µM | – | > 100 µM | > 100 µM | > 100 µM | – | – | – | – | – | – | – | –
5 | CCc1ccc(OCc2ccccc2C(=O)Nc2ccc3nc(C)cc(N)c3c2)cc1 | 3.13 µM | 3.17 µM | – | 2.25 µM | 3.24 µM | – | – | – | – | 3.14 µM | – | 1.65 µM | 1.68 µM | 0.846 µM | 1.64 µM | 1.62 µM | – | – | –
6 | COc1cc2c3cc1Oc1cc(ccc1O)C[C@@H]1c4c(cc(OC)c(O)c4Oc4ccc(cc4)C[C@@H]3[N+](C)(C)CC2)CC[N+]1(C)C | 50.5 µM | > 100 µM | > 100 µM | > 100 µM | – | > 100 µM | > 100 µM | > 100 µM | > 100 µM | > 100 µM | > 100 µM | – | – | – | – | – | – | – | –
7 | Fc1ccc(OCc2ccc3nc(-c4ccccc4)c(Cl)nc3c2)cc1 | 50.3 µM | 90.1 µM | 56.9 µM | 47.3 µM | > 100 µM | > 100 µM | > 100 µM | > 100 µM | – | > 100 µM | – | – | – | – | – | – | – | – | –
8 | O=C(O)C12C3C4(C(=O)O)C1C1(C(=O)O)C2C3(C(=O)O)C41 (configuration not stated) | > 100 µM | > 100 µM | > 100 µM | > 100 µM | > 100 µM | > 100 µM | > 100 µM | > 100 µM | – | > 100 µM | > 100 µM | – | – | – | – | – | – | – | –
9 | COc1cccc(Nc2nc3c([nH]2)c(=O)n(C)c(=O)n3C)c1 | > 10 µM | > 10 µM | > 10 µM | > 10 µM | > 10 µM | > 10 µM | > 10 µM | > 10 µM | – | – | > 10 µM | – | – | – | – | – | – | – | –
10 | O/N=C/[C@H]1COC2(CCCCC2)O1 | > 100 µM | > 100 µM | > 100 µM | > 100 µM | – | > 100 µM | > 100 µM | > 100 µM | > 100 µM | > 100 µM | > 100 µM | – | – | – | – | – | – | – | –
11 | O=C1C=CC(=O)c2c(O)c(N3CCN(c4ncccn4)CC3)c(Cl)c(O)c21 | 25.5 µM | 3.47 µM | 3.1 µM | 3.75 µM | 25.7 µM | 24.8 µM | – | 4.59 µM | 44.8 µM | 19.8 µM | 5.07 µM | – | – | – | – | – | – | – | –
12 | Cn1c(=O)c2[nH]c(Nc3cccc(Cl)c3)nc2n(C)c1=O | > 10 µM | > 10 µM | > 10 µM | > 10 µM | > 10 µM | > 10 µM | > 10 µM | > 10 µM | – | – | > 10 µM | – | – | – | – | – | – | – | –
13 | Fc1cccc(F)c1C1SCc2nc3cc(Cl)ccc3n21 (configuration not stated) | > 70.2 µM | > 100 µM | > 71.1 µM | > 100 µM | 42.6 µM | > 100 µM | 69.2 µM | > 100 µM | – | > 100 µM | > 100 µM | – | – | – | – | – | – | – | –
14 | CCOP(=O)(COCCn1nc(Br)c(=O)[nH]c1=O)OCC | – | – | – | > 100 µM | > 100 µM | > 100 µM | > 100 µM | > 100 µM | > 100 µM | > 100 µM | > 100 µM | – | – | – | – | – | – | – | –
15 | Clc1sc(Cl)c2c1[C@H](Br)C[C@@H]2Cl | > 100 µM | 87.7 µM | 99.1 µM | 51.3 µM | > 100 µM | > 100 µM | > 100 µM | 43.2 µM | – | > 100 µM | > 100 µM | – | – | – | – | – | – | – | –
16 | Cc1ccc(S(=O)(=O)N2CCc3cc(O)c([N+](=O)[O-])cc32)cc1 | > 100 µM | > 100 µM | > 100 µM | > 100 µM | – | – | – | > 100 µM | > 100 µM | – | – | – | – | – | – | – | – | – | –
17 | O=C1c2cc3c(cc2-c2c1c1cc(F)c(F)cc1c(=O)n2C[C@H](O)CO)OCO3 | – | 2.11 µM | – | 3.18 µM | 11.2 µM | 8.77 µM | – | 0.613 µM | – | 4.55 µM | > 100 µM | – | 0.335 µM | 0.378 µM | 0.14 µM | 0.207 µM | 0.069 µM | 0.652 µM | 0.0611 µM
18 | CN(C)C(=O)/N=C1\SC(=Nc2ccccc2)C(=Nc2ccccc2)N1c1ccc([N+](=O)[O-])cc1 | > 100 µM | – | – | > 100 µM | > 100 µM | – | > 100 µM | > 100 µM | > 100 µM | > 100 µM | > 100 µM | – | – | – | – | – | – | – | –
19 | CCc1nc2c([nH]1)C(=O)c1ccccc1C2=O | > 100 µM | > 100 µM | > 100 µM | – | > 100 µM | > 100 µM | – | > 100 µM | > 100 µM | > 100 µM | > 100 µM | – | – | – | – | – | – | – | –
20 | O=c1ccn([C@@H]2C=C(CO)[C@@H](O)[C@H]2O)c(=O)[nH]1 | > 625 µM | – | – | – | > 625 µM | – | – | > 625 µM | > 625 µM | – | – | – | – | – | – | – | – | – | –
21 | COc1ccc(CCn2ccc(=O)c(O)c2C)cc1OC | > 100 µM | > 100 µM | 22.3 µM | 6.2 µM | – | > 100 µM | 96.9 µM | > 100 µM | – | > 100 µM | > 100 µM | – | – | – | – | – | – | – | –

Source: PubChem BioAssay (NCI)
